Assay results published in patent US10624917B2, “Compositions and methods useful for treating or preventing liver diseases or disorders, and promoting weight loss” (YALE UNIVERSITY, priority 2014, dated 2020).
Where no end group is shown, it is not given here.

Key:
[1] = system: TNF-α, IL-10 and IFN-γ secretion; assay: ELISA of other cytokines in PEC supernatants; assay type: cell-based, mouse; settings: LPS + ATP, adenosine deaminase inhibition
Experimental: (§1) FIGS. 1A-1J illustrate the finding that adenosine stimulates IL-1β production in NLRP3 inflammasome-dependent manner. Murine peritoneal macrophages (PECs) were obtained from wild type (WT) mice (FIGS. 1A-1D, 1F-1I), Il1r−/− (FIG. 1E) or Nlrp3−/−, ASC−/−, P2xr7−/−, or Caspase-1−/− mice (FIG. 1J) and were primed with LPS for 16 hours. FIG. 1A: This was followed by treatment for 1 hour with adenosine (Ad, 100 μM), adenosine deaminase inhibitor (EHNA, 10 μM), adenosine deaminase (ADA, 10 U ml^−1), ATP diphosphohydrolase (Apyrase, 10 U ml^−1), or erythro-9-(2-hydroxy-3-nonyl) adenine (EHNA, 10 μM) (FIGS. 1B, 1F-1J)). Pan adenosine agonist (NECA, 1 μM, 10 μM) (FIGS. 1C, 1E), or (FIGS. 1D, 1I) by NECA for 1 and 6 hours, and were then pulsed with ATP for 20 min. Enzyme-linked immunosobent assay (ELISA) of IL-1β, TNF-α, IL-10 and IFN-γ secretion were measured in cell supernatants after pulsing with ATP for 5 hours (FIGS. 1A, 1C-1E, 1J) or indicated time-course (FIGS. 1B, 1G-1I). LDH assay was performed after pulsing with ATP as indicated time-course (FIG. 1F). Data are expressed as the mean±SD from at least three independent experiments. *p<0.05 determined by Student's t-test.

[2] = system: IL-1β production in murine peritoneal macrophages (PECs); assay: IL-1β secretion (ELISA) by primed, ATP-pulsed peritoneal macrophages (PECs); assay type: cell-based, mouse; settings: CpG-B and ATP
PECs = assay: LDH release (cell death) assay in PECs; assay type: cell-based; settings: LPS + ATP treated PECs
Experimental: as §1, with “Pan adenosine agonist (NECA, 1 μM, 10 μM) (FIGS. 1C, 1E), or (FIGS. 1D, 1I) by NECA for 1 and 6 hours, and were then pulsed with ATP for 20 min.” left out, “LDH assay was performed after pulsing with ATP as indicated time-course (FIG. 1F).” left out
FIGS. 2A-2H illustrate the finding that adenosine mediates increase in IL-1β via the A2A receptor and amplifies signal 1 and signal 2 pathways. […] Data are expressed as the mean±SD from at least three independent experiments Immunoblots shown are representative results from at least three independent experiments. p<0.05 determined by Student's t-test.

[3] = system: IL-1β production in murine peritoneal macrophages (PECs); assay: IL-1β secretion (ELISA) by primed, ATP-pulsed peritoneal macrophages (PECs); assay type: cell-based, mouse; settings: for IL-1β production in response to NECA and CGS21680: with PKA inhibition
Experimental: as §1
C57BL/6 mice were purchased from the National Cancer Institute. ASC−/−, Caspase-1−/−, Nlrp3−/− and P2xr7−/− mice have been described (Rock et al., 2010, Annu Rev Immunol. 28:321-42). A2ora2a flox/flox mice and LysMcre mice were purchased from Jackson Laboratories. HIF-1a flox/flox mice were kindly provided by Dr. Ruslan M Medzhitov (Yale University). 7- to 12-week-old males with a variety of genetic manipulations were used in most experiments. The number of mice in each experimental group was chosen based on previous experience with these experimental models. Mouse peritoneal macrophages (PECs) were isolated by peritoneal lavage 3 days after intraperitoneal injection of 4% thioglycollate solution (B2551, Fluka,). Cells were plated at the density of 3×10^6 cells in 12-well dishes and non-adherent cells were removed after 3 h. Cells primed overnight with 100 ng/ml LPS or 10 ng/ml Pam3CSK4 were treated with various chemicals and followed stimulation. Cells were cultured in DMEM medium complemented with 10% FBS, penicillin/streptomycin and L-glutamine. Mouse bone marrow derived macrophages were isolated from bone marrow cells, and were differentiated for 7 days in complete RPMI-1640 medium supplemented with 2 mM L-glutamine, 100 U/ml penicillin, 100 μg/ml streptomycin, 50 μM 2-mercaptoethanol (all from Invitrogen), 10% heat-inactivated FBS and 20 ng/ml M-CSF (PeproTech). Kupffer cells (KC) were isolated by the density gradient separation of Optiprep (Sigma), and then plates were gently washed and media was replenished after seeding cells for 2 hours to raise KC purity.
Primed PECs were both pulsed for 20 min with 5 mM ATP or 10 μM nigericin, and left untreated until culture supernatants were collected. Secretion of IL-1β was determined by enzyme-linked immunoabsorbent assay (ELISA; R&D Systems).

[4] = system: Il1b and other genes in PECs; assay: Quantitative real-time RT-PCR gene expression in PECs; assay type: cell-based, mouse; settings: LPS primed PECs, NECA
Experimental: (§2) FIGS. 3A-3I illustrate the finding that adenosine supersedes LPS induced tolerance and increases IL-1β production by upregulating transcription of pro-IL-1β via cAMP-PKA pathway. PECs were used in all of the following experiments. FIG. 3A: Primed (pri) with LPS (100 ng/ml) for 16 hours followed by stimulation (stim) with LPS (100 ng/ml), or NECA (10 μM) or CGS21680 (10 μM) in the presence or absence of LPS (100 ng/ml) for 6 hours. FIG. 3B: Treated with forskolin for 6 hours as indicated doses with and without LPS priming FIG. 3C: Treated with or without NECA (10 μM), CGS21680 (10 μM) or db-cAMP (200 μM) for 6 hours. FIG. 3D: LPS primed and treated with NECA or CGS21680 in the presence and absence of SQ22536, H89 and PKi. FIG. 3E: Primed with LPS for 16 hours and treated with ATP for 20 min, followed by CGS 21680 in the presence or absence of the adenylyl cyclase and PKA inhibitors SQ22536 and H-89. FIG. 3F: Primed with LPS and treated with or without NECA (10 μM) or db-cAMP (200 μM) for 6 hours. FIG. 3G: Treated with or without CGS21680 (10 μM) for 3 hours, and transcription was stopped by adding […] actinomycin D, and RNA samples collected at indicated times-points. FIG. 3H: LPS primed PECs obtained from wild type or A2AR-cKO mice were stimulated with NECA (10 μM) for 6 hours. The cells were harvested and RNA isolated after each treatment and the gene expression of Il1b and other genes as indicated quantified by real-time PCR using specific primers. FIG. 3I: Primed with LPS for 16 hours and treated with ATP for 20 min, followed by CGS 21680 in the presence or absence of SQ22536 or H-89 Immunoblot analysis of the proIL-1β caspase-1 in cell lysate was performed by specific […] and anti caspase-1 p10 antibodies (FIGS. 3C, 3E-3F, 3I). Data are expressed as the mean±SD from three independent experiments Immunoblots shown are representative results from at least three independent experiments. *p<0.05 determined by Student's t-test.
FIGS. 9A-9H illustrate changes in expression of cytokines and tissue repair genes in peritoneal macrophages in response to adenosine agonists. LPS naive or LPS primed PECs were stimulated with LPS (100 ng ml^−1), CGS21680 (10 μM) or NECA (10 μM) at different time points as indicated. The cells were harvested and RNA isolated after each treatment, and the gene expression of ProIL-1β (Il1b) (FIG. 9A), IL-6 (Il6) (FIG. 9B), IL-4 (Il4) (FIG. 9C), TNF-α (tnfa) (FIG. 9D), TIMP-1 (Timp1) (FIG. 9E), VEGF (vegf) (FIG. 9F), PGK-1 (Pgk1) (FIG. 9G), GLUT-1 (Slc2a1) (FIG. 9H) quantified by real-time PCR using each specific gene primer set as listed. Data are expressed as the mean±SD from three independent experiments. *p<0.05 determined by Student's t-test.
Total RNA was extracted using TRIZOL reagent (Invitrogen), and cDNA was generated with an oligo (dT) primer and the Superscript II system (Invitrogen, USA) followed by analysis using LightCycler 480 system (Roche). q-PCR was performed for Il1b using commercial primer-probe sets (Applied Biosystems Inc.) with DNA master Mix (Roche). Expression of GAPDH was used to standardize the samples, and the results were expressed as a ratio relative to control; q-PCR was performed for tnfa, 116, Txnip, Nlrp3, Hif1a, Timp1, using LightCycler 480 SYBR Green I master mix (Roche). Results were normalized based on the expression of β-actin.

[5] = system: active caspase-1 / pro-IL-1β in PECs; assay: Western blot of caspase-1 and pro-IL-1β in PECs; assay type: cell-based, mouse; settings: for CGS21680 induced increase in LPS/ATP induced active caspase-1: LPS/ATP + CGS21680 with inhibitor; for active (cleaved) caspase-1: in response to LPS/ATP
Experimental: FIGS. 2A-2H illustrate the finding that adenosine mediates increase in IL-1β via the A2A receptor and amplifies signal 1 and signal 2 pathways. FIG. 2A: LPS primed PECs were treated with NECA (10 μM) in the presence or absence of […] different adenosine receptor antagonists for A1 (DPCPX, 10 nM), A2A (ZM 241385, 10 μM), A2B (MRS1706, 10 nM), A3 (MRS1523, 5 μM), or their combinations for 1 hour, and pulsed with ATP for 20 min. FIGS. 2A-2B: A2A receptor specific agonist (CGS21680) and antagonist ZM 241385 increase and block IL-1β production respectively. […] FIG. 2D: PEC's from A2A receptor deficient cells have low IL-1β production, which is not increased by NECA and CGS 21680. FIG. 2E: CGS21680 increases induction of Il1b mRNA expression, and this was decreased in A2A receptor deficient cells. FIG. 2F: Loss of the A2A receptor in macrophages results in much lower levels of Il1b protein A expression in response to LPS. FIG. 2G: CGS21680 and […] increases and decreases production of cleaved caspase-1, respectively. FIG. 2H: The production of cleaved caspase-1 is decreased in A2A receptor deficient macrophages. Data are expressed as the mean±SD from at least three independent experiments Immunoblots shown are representative results from at least three independent experiments. p<0.05 determined by Student's t-test.
as §2
Liver tissue lysates or PECs were lysed in RIPA buffer (10 mM phosphate buffer pH 7.4, 150 mM NaCl, 1% NP-40, 0.5% sodium deoxycholate, 0.1% SDS) supplemented with complete protease inhibitor cocktail (Roche) and 2 mM dithiothreitol. Lysates were resolved in 4-12% Tris-glycine gradient gels (Invitrogen) and transferred to nitrocellulose (Invitrogen) by electro-blotting. The following antibodies were used: rabbit anti-caspase-1 p10 (SC-514, Santa Cruz), goat anti-mouse IL-1β (BAF401, R&D Systems), Rabbit antimouse HIF-1α (NB100-449, Novus Biologicals, Littleton, Colo.).

[6] = LPS-primed PECs pulsed with ATP
[7] = in the absence of either LPS or ATP

CCCCCC[C@@H]([C@@H](C)O)n1cnc2c(N)ncnc21 (racemic) [EHNA, erythro-9-(2-hydroxy-3-nonyl) adenine]
production of IFN-γ [1]: increase | production of IL-10 [1]: no effect | production of TNF-α [1]: reduction | IL-1β production [2]: increase | LDH (lactate dehydrogenase) release, cell death (PECs): did not show correlation with the secretion of IL-1β | IL-1β production, time course ([3]; LPS + ATP, time course): sustained increase | IL-1β production [3, 6]: significant increase | IL-1β production [3, 7]: did not result in any detectable IL-1β | IL-1β production by LPS and ATP ([3]; macrophages lacking caspase-1, NLRP3, ASC or P2x7 receptor): did not result in significant production of IL-1β

COC(=O)c1ccc(O)c(NC(=O)COc2ccc(C34CC5CC(CC(C5)C3)C4)cc2)c1 [CAY10585]
adenosine agonist induced Il1b expression [4]: significantly decrease | adenosine agonist induced IL-1β production ([3]; LPS primed PECs, ATP pulse): significantly decrease

O=S(=O)(NCCNC/C=C/c1ccc(Br)cc1)c1cccc2cnccc12 [H-89]
CGS21680 induced increase in LPS/ATP induced active caspase-1 [5]: reduced | IL-1β production in response to NECA and CGS21680 [3]: significantly reduced

Nc1ncnc2c1ncn2C1CCCO1 (stereo not drawn) [SQ22536]
CGS21680 induced increase in LPS/ATP induced active caspase-1 [5]: reduced | increase in IL-1β induced by CGS21680 and EHNA ([3]; with adenylate cyclase inhibitor): block

Nc1nc(NCCc2ccc(O)cc2)nc2nc(-c3ccco3)nn12 [ZM241385]
CGS21680 induced increase in LPS/ATP induced active caspase-1 [5]: inhibited | active (cleaved) caspase-1 [5]: decreased | active (cleaved) caspase-1 ([5]; listed as ZM241395): decreases | NECA-increased IL-1β production ([3]; LPS + ATP + NECA with receptor antagonist): inhibited | IL-1β production stimulated by CGS21680, NECA and EHNA ([3]; LPS + ATP with antagonist): inhibited | IL-1β production [3, 6]: block

Nc1ncnc2c1ncn2[C@@H]1O[C@H](CO)[C@@H](O)[C@H]1O [adenosine]
IL-1β production [3, 6]: significantly increased | IL-1β production [3, 7]: did not result in any detectable IL-1β

CCCC(=O)Nc1ncnc2c1ncn2[C@@H]1O[C@@H]2COP(=O)([O-])O[C@H]2[C@H]1OC(=O)CCC.[Na+] [db-cAMP, N6,2′-O-Dibutyryladenosine 3′,5′-cyclic monophosphate sodium salt]
up-regulation of Pro-IL-1β ([5]; 6 hours, FIG. 3C): induced up-regulation | pro-IL1β protein levels ([5]; cells from A2AR-cKO mice): increase

PKI 14-22 amide (SGRTGRRNA-NH2; UniProt P61925 14-22, looked up, fragment)
IL-1β production in response to NECA and CGS21680 [3]: significantly reduced

B1: adenosine deaminase: Adenosine deaminase obtained from Worthington Biochemical corporation (protein, UniProt P56658 2-363, looked up)
Adenosine deaminase: AQTPAFNKPKVELHVHLDGAIKPETILYYGRKRGIALPADTPEELQNIIGMDKPLSLPEFLAKFDYYMPAIAGCREAVKRIAYEFVEMKAKDGVVYVEVRYSPHLLANSKVEPIPWNQAEGDLTPDEVVSLVNQGLQEGERDFGVKVRSILCCMRHQPSWSSEVVELCKKYREQTVVAIDLAGDETIEGSSLFPGHVKAYAEAVKSGVHRTVHAGEVGSANVVKEAVDTLKTERLGHGYHTLEDATLYNRLRQENMHFEVCPWSSYLTGAWKPDTEHPVVRFKNDQVNYSLNTDDPLIFKSTLDTDYQMTKNEMGFTEEEFKRLNINAAKSSFLPEDEKKELLDLLYKAYGMPSPASAEQCL
IL-1β production [3, 6]: significant reduction
